The results in this text go back to ChEMBL document CHEMBL3397027, “Design, synthesis and evaluation of chromone-2-carboxamido-alkylbenzylamines as multifunctional agents for the treatment of Alzheimer's disease” (Bioorg Med Chem, 2015).

Calls of active or inactive are those of the source. The rule behind the calls is not given here.

Data set [1] concerns the target T1, Acetylcholinesterase (Rattus norvegicus, UniProt P37136).
T1 sequence (P37136 whole entry): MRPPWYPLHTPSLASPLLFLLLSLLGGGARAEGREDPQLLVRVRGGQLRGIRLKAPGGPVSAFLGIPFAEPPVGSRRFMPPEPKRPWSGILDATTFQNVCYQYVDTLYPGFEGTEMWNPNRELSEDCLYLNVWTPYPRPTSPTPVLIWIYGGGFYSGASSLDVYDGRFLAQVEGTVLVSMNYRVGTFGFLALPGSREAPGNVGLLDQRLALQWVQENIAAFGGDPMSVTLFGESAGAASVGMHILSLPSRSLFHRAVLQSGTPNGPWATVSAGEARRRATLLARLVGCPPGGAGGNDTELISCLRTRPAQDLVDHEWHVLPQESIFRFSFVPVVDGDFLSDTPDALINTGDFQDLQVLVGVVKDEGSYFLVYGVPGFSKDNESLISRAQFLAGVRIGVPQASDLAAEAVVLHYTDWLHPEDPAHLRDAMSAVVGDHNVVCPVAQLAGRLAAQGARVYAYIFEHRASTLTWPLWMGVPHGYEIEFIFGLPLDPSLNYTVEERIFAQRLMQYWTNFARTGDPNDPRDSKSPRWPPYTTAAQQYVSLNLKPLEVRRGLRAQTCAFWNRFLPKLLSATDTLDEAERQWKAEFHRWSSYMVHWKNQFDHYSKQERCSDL
Briefly: Inhibition of AChE from rat cortex homogenate using acetylthiocholine iodide as substrate after 15 mins by Ellman method.

A short description of data set [2]: Inhibition of rat serum BuChE using butyrylthiocholine iodide as substrate after 15 mins by Ellman method. The class given is cell-free.
Data set [3] concerns the target Acetylcholinesterase (Electrophorus electricus, UniProt O42275). The data set is described as follows: Inhibition of electric eel AChE using acetylthiocholine iodide as substrate after 15 mins by Ellman method. Conditions: read-out: IC50.
A further data set is filed under the species Rattus norvegicus. The data set is described as follows: Selectivity index, ratio of IC50 for rat serum BuChE to IC50 for AChE from rat cortex homogenate. The class given is cell-free.
Data set [4] concerns the target Acetylcholinesterase (Electrophorus electricus) (UniProt O42275). Briefly: Mixed-type inhibition of electric eel AChE using acetylthiocholine iodide as substrate at 0.0625 to 0.25 uM after 15 mins by Lineweaver-Burk plot method.
Data set [5] can be described thus: Antioxidant activity assessed as AAPH scavenging activity measured as trolox equivalent at 5 uM after 15 mins by ORAC-FL method relative to control. The class given is physicochemical. The note with it: 0.25 h.
Data set [6] can be described thus: Metal chelating activity of the compound assessed as formation of copper-compound complex in methanol solution at 37.5 uM after 30 mins by UV-vis spectrometry. The class given is physicochemical. Conditions: 0.5 h.
Data set [7] can be described thus: Metal chelating activity of the compound assessed as formation of iron-compound complex in methanol solution at 37.5 uM after 30 mins by UV-vis spectrometry. The format is physicochemical. Conditions: 0.5 h.
A short description of data set [8]: Metal chelating activity of the compound assessed as formation of zinc-compound complex in methanol solution at 37.5 uM after 30 mins by UV-vis spectrometry. The format is physicochemical. The note with it: 0.5 h.
A short description of data set [9]: Metal chelating activity of the compound assessed as formation of aluminium-compound complex in methanol solution at 37.5 uM after 30 mins by UV-vis spectrometry. The class given is physicochemical. Conditions: 0.5 h.
The target in data set [10] is Amyloid-beta precursor protein (Homo sapiens) (UniProt P05067). Briefly: Inhibition of self-mediated aggregation of amyloid beta (1-42) (unknown origin) at 25 uM after 24 hrs by thioflavin T fluorescence-based fluorimetric method.
Sequence of Amyloid-beta precursor protein (Homo sapiens) (P05067 whole entry): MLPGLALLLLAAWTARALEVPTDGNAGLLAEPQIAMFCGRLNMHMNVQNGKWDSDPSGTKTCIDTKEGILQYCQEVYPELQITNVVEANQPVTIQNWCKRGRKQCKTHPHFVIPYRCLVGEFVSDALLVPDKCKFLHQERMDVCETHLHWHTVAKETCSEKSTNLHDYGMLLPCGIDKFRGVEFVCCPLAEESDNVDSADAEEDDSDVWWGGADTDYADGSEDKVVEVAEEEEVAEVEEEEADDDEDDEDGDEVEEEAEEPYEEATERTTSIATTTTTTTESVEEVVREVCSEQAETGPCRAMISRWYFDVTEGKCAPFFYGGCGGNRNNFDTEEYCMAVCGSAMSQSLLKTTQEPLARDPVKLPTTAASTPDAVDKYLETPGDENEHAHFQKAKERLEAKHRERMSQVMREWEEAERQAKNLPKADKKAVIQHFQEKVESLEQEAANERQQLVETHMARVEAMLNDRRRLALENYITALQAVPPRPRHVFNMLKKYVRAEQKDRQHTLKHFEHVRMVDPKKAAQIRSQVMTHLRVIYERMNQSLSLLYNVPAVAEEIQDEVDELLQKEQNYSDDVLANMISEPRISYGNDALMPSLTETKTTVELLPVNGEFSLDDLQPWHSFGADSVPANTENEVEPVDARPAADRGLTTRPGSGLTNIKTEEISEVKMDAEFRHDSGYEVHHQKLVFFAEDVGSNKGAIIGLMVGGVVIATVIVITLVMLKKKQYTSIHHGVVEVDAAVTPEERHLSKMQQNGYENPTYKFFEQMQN
Data set [11] shares this target. Briefly: Inhibition of Cu2+-mediated aggregation of amyloid beta (1-42) (unknown origin) at 25 uM after 24 hrs by thioflavin T fluorescence-based fluorimetric method.

Sequence of Acetylcholinesterase (Electrophorus electricus, UniProt O42275) (O42275 whole entry): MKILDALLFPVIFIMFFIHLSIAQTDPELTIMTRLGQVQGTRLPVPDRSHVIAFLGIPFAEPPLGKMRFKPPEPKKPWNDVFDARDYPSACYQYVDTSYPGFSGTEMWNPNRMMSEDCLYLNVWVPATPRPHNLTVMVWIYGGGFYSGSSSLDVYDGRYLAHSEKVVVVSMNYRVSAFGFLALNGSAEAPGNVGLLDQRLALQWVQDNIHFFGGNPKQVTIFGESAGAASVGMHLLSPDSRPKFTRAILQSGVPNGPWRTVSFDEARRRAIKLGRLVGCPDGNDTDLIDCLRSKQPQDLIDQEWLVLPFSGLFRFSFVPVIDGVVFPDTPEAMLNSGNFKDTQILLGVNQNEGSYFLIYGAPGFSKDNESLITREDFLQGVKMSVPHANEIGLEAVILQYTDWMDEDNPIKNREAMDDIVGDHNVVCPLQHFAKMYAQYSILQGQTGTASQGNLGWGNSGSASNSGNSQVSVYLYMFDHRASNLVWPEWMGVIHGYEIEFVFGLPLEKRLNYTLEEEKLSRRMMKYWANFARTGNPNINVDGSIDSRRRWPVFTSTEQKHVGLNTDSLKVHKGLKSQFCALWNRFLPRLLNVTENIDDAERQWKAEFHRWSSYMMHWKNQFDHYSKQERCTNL
Sequence of Acetylcholinesterase (Electrophorus electricus) (O42275 24-633 limits assumed): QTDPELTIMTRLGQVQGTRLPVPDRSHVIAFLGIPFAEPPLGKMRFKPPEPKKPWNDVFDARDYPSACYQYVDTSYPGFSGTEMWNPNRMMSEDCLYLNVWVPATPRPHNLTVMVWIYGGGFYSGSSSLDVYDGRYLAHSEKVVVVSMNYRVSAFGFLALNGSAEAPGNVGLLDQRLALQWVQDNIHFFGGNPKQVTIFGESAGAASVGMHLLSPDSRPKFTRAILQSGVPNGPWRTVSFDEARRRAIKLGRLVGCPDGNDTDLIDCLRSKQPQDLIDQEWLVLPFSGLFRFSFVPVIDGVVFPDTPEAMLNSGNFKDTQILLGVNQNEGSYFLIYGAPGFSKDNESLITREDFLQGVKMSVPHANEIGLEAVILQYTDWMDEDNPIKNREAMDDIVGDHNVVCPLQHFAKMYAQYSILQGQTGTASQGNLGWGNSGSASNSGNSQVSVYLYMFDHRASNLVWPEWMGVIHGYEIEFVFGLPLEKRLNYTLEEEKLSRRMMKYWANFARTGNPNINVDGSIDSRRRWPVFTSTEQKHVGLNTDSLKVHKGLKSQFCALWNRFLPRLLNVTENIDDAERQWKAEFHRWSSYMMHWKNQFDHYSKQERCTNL

Turning to `CCN(CCCCNC(=O)c1cc(=O)c2c(O)cccc2o1)Cc1ccccc1OC`, the values for the IC50 (on Acetylcholinesterase [1]; in data set [2]; on Acetylcholinesterase [3]) were 70 nM, 51500 nM and 550 nM, respectively. The Ratio IC50 in the data set listed under Rattus norvegicus was 736. Further, the inhibition result in [4] is “Active”. For the same compound, the “fold change (FC)” value in [5] came to 0.83. For the same compound, the Activity entry in [6] is recorded as “Active”; in [7], “Not Active”; in data set [8], “Not Active”; in data set [9] it was “Not Active”. Besides, the inhibition in data set [10] worked out at 59.2%; in data set [11], 48.3%.

As for `COc1cc(O)c2c(=O)cc(C(=O)NCCCCCCN(C)Cc3ccccc3)oc2c1`, the IC50 against Acetylcholinesterase [1] was determined as 3030 nM; in [2], 50000 nM; on Acetylcholinesterase [3] it was 250 nM. Further, in the data set filed under Rattus norvegicus, the Ratio IC50 is 16.5. Also, the “fold change (FC)” value in [5] is on record as 1. In addition, the inhibition was 33.5% in [10] and 37.1% in [11].

Turning to `CCN(CCCCNC(=O)c1cc(=O)c2c(O)cc(OC)cc2o1)Cc1ccccc1N(C)C`, the concentration for half-maximal inhibition (IC50) on Acetylcholinesterase [1] was 310 nM; in data set [2] it was 74100 nM; at Acetylcholinesterase [3] it was 920 nM. The Ratio IC50 in the data set listed under Rattus norvegicus worked out at 239. Also, the “fold change (FC)” value in [5] came out at 0.97. In addition, the values for the inhibition in [10] and in [11] were 25.6% and 20%, respectively.

For the compound `CCN(CCCCCCNC(=O)c1cc(=O)c2c(O)cc(O)cc2o1)Cc1ccccc1OC`, the IC50 against Acetylcholinesterase [1] is 870 nM; in data set [2] it was > 200000 nM; on Acetylcholinesterase [3] it was 1400 nM. In addition, in the data set filed under Rattus norvegicus, the Ratio IC50 was > 200. Further, the “fold change (FC)” value in data set [5] was 2.25. Also, the figures for the inhibition in data set [10] and in data set [11] were 39.4% and 28.7%, respectively.

Regarding `CCN(CCCCNC(=O)c1cc(=O)c2c(O)cc(OC)cc2o1)Cc1ccccc1`, the figures for the IC50 (on Acetylcholinesterase [1]; in data set [2]; on Acetylcholinesterase [3]) were 1810 nM, 128000 nM and 1450 nM, respectively. Moreover, in the data set filed under Rattus norvegicus, the Ratio IC50 is 71. The “fold change (FC)” value in data set [5] turned out to be 0.65. Further, the values for the inhibition in [10] and in data set [11] were 39% and 34.1%, respectively.

Consider `COc1cc(O)c2c(=O)cc(C(=O)NCCCN(C)Cc3ccccc3)oc2c1`, for which the IC50 at Acetylcholinesterase [1] is 15300 nM; in data set [2], > 200000 nM; at Acetylcholinesterase [3], 3120 nM. The Ratio IC50 in the data set listed under Rattus norvegicus is > 13.1. Also, the “fold change (FC)” value in data set [5] is on record as 0.46. Moreover, the values for the inhibition in data set [10] and in data set [11] were 23% and 24.3%, respectively.

Broadly, the IC50 is the concentration that gives 50% inhibition. For orientation: inhibition means the relative decrease from the control value, in per cent.
